No end group written: not given here.
Assays:
mesangial cells = assay: Filopodia formation in cultured mesangial cells; type: cell-based
Text: Thus, it appears that the al-null mesangial cells are refractive to activation of CDC42, which is consistent with the markedly attenuated effect on mesangial filopodial invasion, explaining why al integrin blockade attenuates ECM-mediated podocyte injury.

α1 null Alport mice = assay: Proteinuria (Bradford assay, normalized to urinary creatinine) in α1 null Alport mice; type: in vivo; details: ramipril-treated vs untreated α1-null Alport mice; total protein normalized to urinary creatinine
Description: FIG. 1. […] Urine was collected from the indicated treatment groups at the indicated ages. Total protein was measured by Bradford assay and normalized to urinary creatinine.
(§1) Autosomal Alport mice or al integrin null Alport (DKO) mice (both on the 129 Sv background) were given straight water or treated with ramipril (10 mg/kg/day in drinking water) starting at 3 weeks of age. Proteinuria (FIG. 1) and lifespan (FIG. 2) were measured. We were surprised to see the improvement of lifespan from 20 weeks in ramipril-treated Alport mice to >30 weeks in ramipril-treated DKO mice. Tripling the lifespan of the Alport mouse model (which lives to on average 10 weeks of age as is evident in FIG. 2) is unprecedented in the Alport field. Integrin α1-null Alport (DKO) mice treated with ramipril live twice as long as untreated DKO mice and 3 times as long as untreated Alport mice. Animals from the indicated treatment groups were allowed to live until they lost >10% of their peak body weight and then euthanized (a humane endpoint, considered age of death). DKO mice show a 60% increase in lifespan. […] If translated to humans (as did ramipril treatment starting at a young age) this therapy could portend survival to 60-70 years of age for Alport patients with severe mutations.

DKO mice [1] = assay: Dual immunofluorescence of glomeruli for mesangial proteins in the GBM of DKO mice; type: in vivo
Text: FIGS. 3A-3F are color dual immunofluorescence confocal images of glomeruli stained with antibodies against laminin α5 (a GBM marker) and laminin α2. FIGS. 3A-3C are untreated DKO mice. FIGS. 3D-3F are DKO mice treated with Ramipril. FIGS. 3A and 3D show laminin α5 data. FIGS. 3B and 3E show laminin α2 data. FIGS. 3C and 3F show a merge of the laminin α5 and laminin α2 data.
FIGS. 4A-4F are color dual immunofluorescence confocal images of glomeruli stained with antibodies against nidogen (a GBM marker) and collagen III. FIGS. 4A-4C are untreated DKO mice. FIGS. 4D-4F are DKO mice treated with Ramipril. FIGS. 4A and 4D show nidogen data. FIGS. 4B and 4E show collagen 3 α1 data. FIGS. […] show a merge of the nidogen and collagen 3 α1 data.
This evidence has obvious and important translational value. By preventing the invasion of the glomerular capillaries by mesangial filopodia, the deposition of mesangial proteins in the GBM is prevented. This prevents podocyte injury that is caused by the mesangial matrix.
If the ECM deposition in the GBM is indeed a significant contributor to glomerular pathology we would expect it would be delayed in the ramipril-treated DKO mice. To determine if this was indeed the case, we performed immunohistochemical analysis for laminin 211 dual stained with the GBM marker laminin α5. Specifically, Duan immunofluorescence analysis was performed on cryosections from 20 and 25 week old DKO/ramipril mice. Sections were immunostained using antibodies for laminin 211 and laminin α5 (a GBM marker). […] Between 20 and 25 weeks of age, however, GBM localization of laminin 211 became widespread as depicted in FIGS. 6A-6F. FIGS. 6A-6C are the 20-week data and FIGS. 6D-6F are the 25-week data.

Autosomal Alport mice = assay: Lifespan of ramipril-treated autosomal Alport mice; type: in vivo; details: ramipril 10 mg/kg/day in drinking water from 3 weeks of age, 129 Sv, humane endpoint >10% loss of peak body weight
Description: as §1

[2] = system: al integrin null Alport (DKO) mice; assay: Lifespan of ramipril-treated α1 integrin null Alport (DKO) mice; type: in vivo
Description: as §1

DKO mice [3] = assay: Glomerular filtration rate, MediBeacon transdermal LED approach, DKO mice; type: in vivo; details: ramipril-treated DKO mice, 25 weeks relative to 20 weeks of age; two mice
Description: Glomerular filtration rates (GFR) were measured using the MediBeacon (St Louis, MO) transdermal LED approach, which allows serial measurements to be conducted in the same animals. […] Serial GFR measures were made using two ramipril-treated DKO mice. GFR measures were at 20 and 25 weeks of age. Additional mice at additional timepoints of measure (to 30 weeks) will be added as part of the research plan to establish statistical significance.

[4] = ramipril-treated DKO mice at 10 weeks of age, untreated DKO had a significant amount

Compound: endothelin-1: stimulus of filopodial formation in mesangial cells (CSCSSLMDKECVYFCHLDIIW; ends and bridges not checked; cysteine pairing not given here; UniProt P05305 53-73, looked up)
- formation of filopodia (mesangial cells; wild type mesangial cells): activates the formation of filopodia
- formation of filopodia (mesangial cells; α1-null mesangial cells): do not respond

Compound: CCOC(=O)[C@H](CCc1ccccc1)N[C@@H](C)C(=O)N1[C@H](C(=O)O)C[C@@H]2CCC[C@@H]21 [ramipril]
- proteinuria (α1 null Alport mice): markedly reduced
- collagen III in the GBM (DKO mice [1]; [4]): no laminin 211 or collagen III in the GBM
- laminin 211 in the GBM (DKO mice [1]; [4]): no laminin 211 or collagen III in the GBM
- GBM accumulation of laminin 211 (DKO mice [1]; ramipril-treated DKO mice, before 20 weeks of age): did not observe any significant GBM accumulation
- GBM localization of laminin 211 (DKO mice [1]; ramipril-treated DKO mice, between 20 and 25 weeks of age): widespread
- lifespan (age of death) (Autosomal Alport mice): 20 weeks
- lifespan (age of death) ([2]; ramipril 10 mg/kg/day in drinking water from 3 weeks of age, α1 integrin null Alport (DKO) mice, 129 Sv): > 30 weeks
- lifespan relative to untreated Alport mice ([2]; ramipril-treated DKO mice): 3 times
- lifespan relative to untreated DKO mice ([2]; ramipril-treated DKO mice): twice as long
- GFR (DKO mice [3]): marked reduction

Reference: patent publication US20230374141A1, “COMBINATION THERAPY FOR ALPORT RENAL DISEASE” (Father Flanagan's Boys' Home Doing Business as Boys Town …, priority 2020, published 2023)
